Laboratory results taken from patent US11890288B2, “Sulfonamide or sulfinamide compound having effect of inducing BRD4 protein degradation and pharmaceutical use thereof” (MITSUBISHI TANABE PHARMA CORPORATION, priority 2020, dated 2024).

Tests used:
[1] = tested on: human prostate cancer LNCaP cells; experiment: Cytotoxic action on LNCaP cells (WST-8, 96 hr); assay type: cell-based; details: 96 hr culture
Protocol: The cytotoxic action of the compound of the present invention against human cancer cells was evaluated in vitro. In this experiment, (+)-JQ1 (Nature volume 468, pages 1067-1073 (23 Dec. 2010)) known to have an inhibitory activity on the binding of BRD4 protein and a ligand therefor was used as a positive control drug. Respective cells were suspended in 10% FBS/RPMI1640, seeded in a 96 well plate and cultured at 5% CO2, 37° C. overnight. A test compound dissolved in DMSO was diluted with 10% FBS/RPMI1640 and added and the cells were further cultured for 96 hr. After culturing, the viable cell number was measured using a cell number measurement WST-8 kit (Kishida Chemical Co., Ltd.). As a control, the measurement was performed under conditions free of the test compound. The cytotoxic activity of the compound of the present invention against human prostate cancer LNCaP cells is shown in IC50 value in Table 1. The IC50 value is a concentration of the compound showing 50% cell survival rate when the cell survival rate thereof under compound untreated condition is 100%. It was calculated from the straight line connecting the cell survival rate at two points enclosing the 50% cell survival rate and the compound concentration. In addition, the cytotoxic activity against respective cancer cells of human acute myeloid leukemia MV-4-11 cell, human chronic myeloid leukemia K562 cell, human multiple myeloma MM.1S cell, human diffuse large B-cell lymphoma SU-DHL-6 cell, human T-cell leukemia Jurkat cells, human Burkitt lymphoma Raji cell, human castration-resistant prostate cancer PC-3 cell, human AR-V7 positive castration-resistant prostate cancer 22Rv1 cell, human ovarian cancer A2780 cell, human cisplatin-resistant ovarian cancer SK-OV-03 cell, human bladder cancer 5637 cell, human breast cancer ZR-75-1 cell, human triple negative breast cancer MDA-MB-231 cell, human uterus cervix cancer HeLa cell, human uterine sarcoma MES-SA cell, human stomach cancer SNU-16 cell, human non-small cell lung cancer NCI-H2126 cell, human EGFRT790M mutation-positive non-small cell lung cancer NCI-H1975 cell, human small cell lung cancer NCI-H82 cell, human large cell lung cancer NCI-H460 cell, human colon cancer HCT116 cell, human glioma U-87 MG cell, human pancreatic cancer BxPC-3 cell, human liver cancer HLF cell, human bile duct cancer HuCCT1 cell, human renal cell cancer 786-O cell, and human fibrosarcoma HT1080 cell is shown in IC50 value in Table 2.

[2] = molecular target: BRD4 protein (Homo sapiens (Human), UniProt O60885); experiment: BRD4 protein degradation inducing action in LNCaP cells (immunofluorescence, 6 hr); assay type: cell-based; details: anti-BRD4 fluorescence intensity
Protocol: The degradation inducing action of the compound of the present invention on BRD4 proteins in cancer cells was evaluated in vitro using human prostate cancer LNCaP cells. LNCaP cells were suspended in 10% FBS/RPMI1640, seeded in a 96 well Cell carrier plate (Perkin Elmer) and cultured at 5% CO2, 37° C. overnight. A test compound dissolved in DMSO was diluted with 10% FBS/RPMI1640 and added and the cells were further cultured for 6 hr. After culturing, the cells were immobilized with 4% para-formaldehyde/PBS and further subjected to a permeation treatment with 0.25% Triton X-100/PBS. Thereafter, the cells were blocked with 10% BSA/PBS, Anti-BRD4 (Sigma-Aldrich) solution was added and the cells were incubated at 4° C. overnight. Furthermore, Goat anti-Rabbit IgG(H+L) Cross-Adsorbed Secondary Antibody, Alexa Fluor 546 (Thermo Fisher Scientific) solution, 0.5 μg/mL Hoechst 33342 (Sigma-Aldrich), and 14 μM Acti-Stain 555 Fluorescent Phalloidin (Cytoskeleton) were added. After incubation for 1 hr, BRD4 protein amount was measured by Operetta (Perkin Elmer) as fluorescence intensity (excitation: 560 nm, emission: 572 nm). The BRD4 protein degradation inducing activity of the compound of the present invention in LNCaP cells is shown in DC50 value in Table 3. The DC50 value is a concentration of the compound showing 50% fluorescence intensity when the fluorescence intensity thereof under compound untreated condition is 100%. It was calculated from the straight line connecting the fluorescence intensity at two points enclosing the 50% fluorescence intensity and the compound concentration.

| Compound | DC50 [2] [nM] | IC50 [1] [nM] |
| --- | --- | --- |
| COC(=O)C[C@@H]1N=C(c2ccc(-c3ccc(C(=O)NCc4ccc(S(=O)(=O)Nc5ccc(C)c6c(C#N)c[nH]c56)cc4)cc3C)cc2)c2c(sc(C)c2C)-n2c(C)nnc21 [Example 75, methyl [(6S)-4-{4′-[({4-[(3-cyano-4-methyl-1H-indol-7-yl)sulfamoyl]phenyl}methyl)carbamoyl]-2′-methyl[1,1′-biphenyl]-4-yl}-2,3,9-trimethyl-6H-thieno[3,2-f][1,2,4]triazolo[4,3-a][1,4]diazepin-6-yl]acetate] | 0.32 | 0.47 |
| COC(=O)C[C@@H]1N=C(c2ccc(-c3cc(F)c(C(=O)NCc4ccc(S(=O)(=O)Nc5ccc(C)c6c(C#N)c[nH]c56)cc4)cc3F)cc2)c2c(sc(C)c2C)-n2c(C)nnc21 [Example 82, methyl [(6S)-4-{4′-[({4-[(3-cyano-4-methyl-1H-indol-7-yl)sulfamoyl]phenyl}methyl)carbamoyl]-2′,5′-difluoro[1,1′-biphenyl]-4-yl}-2,3,9-trimethyl-6H-thieno[3,2-f][1,2,4]triazolo[4,3-a][1,4]diazepin-6-yl]acetate] | 0.25 | 0.27 |
| COC(=O)C[C@@H]1N=C(c2ccc(-c3ccc(C(=O)NCc4ccc(S(=O)(=O)Nc5ccc(OC)c6c(C#N)c[nH]c56)cc4)cc3)cc2)c2c(sc(C)c2C)-n2c(C)nnc21 [Example 15, methyl [(6S)-4-{4′-[({4-[(3-cyano-4-methoxy-1H-indol-7-yl)sulfamoyl]phenyl}methyl)carbamoyl][1,1′-biphenyl]-4-yl}-2,3,9-trimethyl-6H-thieno[3,2-f][1,2,4]triazolo[4,3-a][1,4]diazepin-6-yl]acetate] | 0.22 | 0.28 |
| COC(=O)C[C@@H]1N=C(c2ccc(-c3ccc(C(=O)NCCc4ccc(S(=O)(=O)Nc5ccc(C)c6c(C#N)c[nH]c56)cc4)cc3Cl)cc2)c2c(sc(C)c2C)-n2c(C)nnc21 [Example 48, methyl [(6S)-4-{2′-chloro-4′-[(2-{4-[(3-cyano-4-methyl-1H-indol-7-yl)sulfamoyl]phenyl}ethyl)carbamoyl][1,1′-biphenyl]-4-yl}-2,3,9-trimethyl-6H-thieno[3,2-f][1,2,4]triazolo[4,3-a][1,4]diazepin-6-yl]acetate] | 0.3 | 0.49 |
| COC(=O)C[C@@H]1N=C(c2ccc(-c3ccc(C(=O)N[C@H](C)c4ccc(S(=O)(=O)Nc5ccc(C)c6c(C#N)c[nH]c56)cc4)c(Cl)c3)cc2)c2c(sc(C)c2C)-n2c(C)nnc21 [Example 70, methyl [(6S)-4-(3′-chloro-4′-{[(1R)-1-{4-[(3-cyano-4-methyl-1H-indol-7-yl)sulfamoyl]phenyl}ethyl]carbamoyl}[1,1′-biphenyl]-4-yl)-2,3,9-trimethyl-6H-thieno[3,2-f][1,2,4]triazolo[4,3-a][1,4]diazepin-6-yl]acetate] | 0.13 | 0.23 |
| COC(=O)C[C@@H]1N=C(c2ccc(-c3ccc(C(=O)NCc4ccc(S(=O)(=O)Nc5ccc(C)c6c(C#N)c[nH]c56)cc4)c(C)c3)cc2)c2c(sc(C)c2C)-n2c(C)nnc21 [Example 50, methyl [(6S)-4-{4′-[({4-[(3-cyano-4-methyl-1H-indol-7-yl)sulfamoyl]phenyl}methyl)carbamoyl]-3′-methyl[1,1′-biphenyl]-4-yl}-2,3,9-trimethyl-6H-thieno[3,2-f][1,2,4]triazolo[4,3-a][1,4]diazepin-6-yl]acetate] | 0.13 | 0.23 |

Further lines, with some results ahead:

| DC50 [2] [nM] | Compound | IC50 [1] [nM] |
| --- | --- | --- |
| 0.38 | Cc1sc2c(c1C)C(c1ccc(-c3ccc(C(=O)NCc4ccc(S(=O)(=O)Nc5ccc(C)c6c(C#N)c[nH]c56)cc4)c(Cl)c3)cc1)=N[C@@H](CC(=O)OC(C)(C)C)c1nnc(C)n1-2 [Example Compound 140, t-butyl [(6S)-4-{3′-chloro-4′-[({4-[(3-cyano-4-methyl-1H-indol-7-yl)sulfamoyl]phenyl}methyl)carbamoyl][1,1′-biphenyl]-4-yl}-2,3,9-trimethyl-6H-thieno[3,2-f][1,2,4]triazolo[4,3-a][1,4]diazepin-6-yl]acetate] | 0.52 |
| 0.47 | Cc1cc(-c2ccc(C3=N[C@@H](CC(=O)OC(C)(C)C)c4nnc(C)n4-c4sc(C)c(C)c43)cc2)ccc1C(=O)NCc1ccc(S(=O)(=O)Nc2ccc(C)c3c(C#N)c[nH]c23)cc1 [Example Compound 141, t-butyl [(6S)-4-{4′-[({4-[(3-cyano-4-methyl-1H-indol-7-yl)sulfamoyl]phenyl}methyl)carbamoyl]-3′-methyl[1,1′-biphenyl]-4-yl}-2,3,9-trimethyl-6H-thieno[3,2-f][1,2,4]triazolo[4,3-a][1,4]diazepin-6-yl]acetate] | 0.92 |
| 0.13 | COc1ccc2c(c1)C(c1ccc(-c3ccc(C(=O)NCc4ccc(S(=O)(=O)Nc5ccc(C)c6c(C#N)c[nH]c56)cc4)cc3)cc1)=N[C@@H](CC(=O)OC(C)(C)C)c1nnc(C)n1-2 [Example Compound 132, t-butyl [(4S)-6-{4′-[({4-[(3-cyano-4-methyl-1H-indol-7-yl)sulfamoyl]phenyl}methyl)carbamoyl][1,1′-biphenyl]-4-yl}-8-methoxy-1-methyl-4H-[1,2,4]triazolo[4,3-a][1,4]benzodiazepin-4-yl]acetate] | 0.21 |
| 0.31 | Cc1sc2c(c1C)C(c1ccc(-c3ccc(C(=O)N[C@H](C)c4ccc(S(=O)(=O)Nc5ccc(C)c6c(C#N)c[nH]c56)cc4)cc3)cc1)=N[C@@H](CC(=O)OC(C)(C)C)c1nnc(C)n1-2 [Example Compound 134, t-butyl [(6S)-4-(4′-{[(1R)-1-{4-[(3-cyano-4-methyl-1H-indol-7-yl)sulfamoyl]phenyl}ethyl]carbamoyl}[1,1′-biphenyl]-4-yl)-2,3,9-trimethyl-6H-thieno[3,2-f][1,2,4]triazolo[4,3-a][1,4]diazepin-6-yl]acetate] | 0.55 |
| 0.033 | CCOC(=O)C[C@@H]1N=C(c2ccc(-c3ccc(C(=O)NCc4ccc(S(=O)(=O)Nc5ccc(C)c6c(C#N)c[nH]c56)cc4)cc3)cc2)c2c(sc(C)c2C)-n2c(C)nnc21 [Example Compound 129, ethyl [(6S)-4-{4′-[({4-[(3-cyano-4-methyl-1H-indol-7-yl)sulfamoyl]phenyl}methyl)carbamoyl][1,1′-biphenyl]-4-yl}-2,3,9-trimethyl-6H-thieno[3,2-f][1,2,4]triazolo[4,3-a][1,4]diazepin-6-yl]acetate] | 0.048 |
| 0.03 | COC(=O)C[C@@H]1N=C(c2ccc(-c3cnc(C(=O)N[C@H](C)c4ccc(S(=O)(=O)Nc5ccc(C)c6c(C#N)c[nH]c56)cc4)cn3)cc2)c2c(sc(C)c2C)-n2c(C)nnc21 [Example 103, methyl {(6S)-4-[4-(5-{[(1R)-1-{4-[(3-cyano-4-methyl-1H-indol-7-yl)sulfamoyl]phenyl}ethyl]carbamoyl}pyrazin-2-yl)phenyl]-2,3,9-trimethyl-6H-thieno[3,2-f][1,2,4]triazolo[4,3-a][1,4]diazepin-6-yl}acetate] | 0.067 |
| 0.32 | Cc1sc2c(c1C)C(c1ccc(-c3ccc(C(=O)NCc4ccc(S(=O)(=O)Nc5ccc(C)c6c(C#N)c[nH]c56)cc4)c(F)c3F)cc1)=N[C@@H](CC(=O)OC(C)(C)C)c1nnc(C)n1-2 [Example Compound 138, t-butyl [(6S)-4-{4′-[({4-[(3-cyano-4-methyl-1H-indol-7-yl)sulfamoyl]phenyl}methyl)carbamoyl]-2′,3′-difluoro[1,1′-biphenyl]-4-yl}-2,3,9-trimethyl-6H-thieno[3,2-f][1,2,4]triazolo[4,3-a][1,4]diazepin-6-yl]acetate] | 0.77 |
